From ChEMBL document CHEMBL3112578, “Synthesis and haemolytic activity of novel salts made of nicotine alkaloids and bile acids” (Bioorg Med Chem Lett, 2014) come the findings set out here.

A short description of data set [1]: Hemolytic activity in human erythrocytes assessed as release of hemoglobin at 0.19 mg/mL after 60 mins relative to control. In kind it is ADME, cell-based, Erythrocyte. As to conditions: read-out: Activity.
A short description of data set [2]: Hemolytic activity in human erythrocytes assessed as release of hemoglobin after 60 mins. The format is ADME, cell-based, Erythrocyte. As to conditions: 1 h; for IC50: Homo sapiens, Erythrocyte; for Activity: human, erythrocyte.
Data set [3] can be described thus: Hemolytic activity in human erythrocytes assessed as increase in cell permeability up to 1 mg/mL after 60 mins. In kind it is ADME, cell-based. The note with it: erythrocyte, 1 h.
Data set [4] is described as follows: Hemolytic activity in human erythrocytes assessed as release of hemoglobin at 0.67 mg/mL after 60 mins relative to control. The format is ADME, cell-based, Erythrocyte. The note with it: read-out: Activity.
Data set [5] is described as follows: Hemolytic activity in human erythrocytes assessed as induction of spheroechinocytic shape alteration at hemolysis start concentration after 60 mins by SEM analysis. In kind it is cell-based. As to conditions: erythrocyte, 1 h.
Data set [6] is described as follows: Hemolytic activity in human erythrocytes assessed as induction of echinocytic shape alteration at hemolysis start concentration after 60 mins by SEM analysis. The format is cell-based. As to conditions: erythrocyte, 1 h.
A short description of data set [7]: Hemolytic activity in human erythrocytes assessed as release of hemoglobin at 0.00001 mg/mL after 60 mins relative to control. The note with it: read-out: Activity. The format is ADME, cell-based, Erythrocyte.
Data set [8] is described as follows: Hemolytic activity in human erythrocytes assessed as release of hemoglobin at 0.63 mg/mL after 60 mins relative to control. The note with it: read-out: Activity. In kind it is ADME, cell-based, Erythrocyte.
Data set [9] is described as follows: Hemolytic activity in human erythrocytes assessed as induction of stomatocytic shape alteration at hemolysis start concentration after 60 mins by SEM analysis. The format is cell-based. As to conditions: erythrocyte, 1 h.
Data set [10] in a line: Hemolytic activity in human erythrocytes assessed as release of hemoglobin at 0.006 mg/mL after 60 mins relative to control. The format is ADME, cell-based, Erythrocyte. As to conditions: read-out: Activity.
A short description of data set [11]: Hemolytic activity in human erythrocytes assessed as release of hemoglobin at 0.007 mg/mL after 60 mins relative to control.
Data set [12] is described as follows: Hemolytic activity in human erythrocytes assessed as discocytic shape up to 1 mg/mL after 60 mins by SEM analysis. The note with it: erythrocyte, 1 h. The format is ADME, cell-based.
Data set [13] in a line: Hemolytic activity in human erythrocytes assessed as release of hemoglobin at 0.75 mg/mL after 60 mins relative to control. The format is ADME, cell-based, Erythrocyte. The note with it: read-out: Activity.
Data set [14] is described as follows: Hemolytic activity in human erythrocytes assessed as release of hemoglobin at 0.0001 mg/mL after 60 mins relative to control. As to conditions: read-out: Activity. The format is ADME, cell-based, Erythrocyte.
The nature of data set [15]: Hemolytic activity in human erythrocytes assessed as release of hemoglobin at 0.17 mg/mL after 60 mins relative to control. In kind it is ADME, cell-based, Erythrocyte. The note with it: read-out: Activity.

In brackets after ≈: the same amount, converted by molar mass.

For orientation: IC50 means the point on the concentration scale where inhibition reaches its midpoint. As for `CN1C(=[Se])CC[C@H]1c1cccnc1.C[C@H](CCC(=O)O)[C@H]1CC[C@H]2[C@@H]3CC[C@@H]4C[C@H](O)CC[C@]4(C)[C@H]3C[C@H](O)[C@]12C`, the hemolysis at 1 h, 0.19 mg/mL in data set [1] was determined as 5%. Moreover, in data set [2], the half-maximal inhibitory concentration (IC50) worked out at 610 µg/mL and the Activity result is “Dose-dependent effect”.

Turning to `CN1C(=S)CC[C@H]1c1cccnc1.C[C@H](CCC(=O)O)[C@H]1CC[C@H]2[C@@H]3CC[C@@H]4C[C@H](O)CC[C@]4(C)[C@H]3C[C@H](O)[C@]12C`, the Activity entry is listed as “Non-toxic” in [3] and “Dose-dependent effect” in [2]. For the same molecule, the hemolysis at 1 h, 0.67 mg/mL in [4] is 5%.

With `CN1C(=S)CC[C@H]1c1cccnc1.C[C@H](CCC(=O)O)[C@H]1CC[C@H]2[C@@H]3CC[C@@H]4C[C@H](O)CC[C@]4(C)[C@H]3CC[C@]12C`, the results for the Activity entry in [5], in data set [6] and in data set [2] were “Toxic”, “Toxic” and “Dose-dependent effect”, respectively. Also, the IC50 in [2] turned out to be 40 µg/mL. In addition, the hemolysis at 1 h, 1e-05 mg/mL in data set [7] was 5%.

With `CN1CCC[C@H]1c1cccnc1.C[C@H](CCC(=O)O)[C@H]1CC[C@H]2[C@@H]3[C@H](O)C[C@@H]4C[C@H](O)CC[C@]4(C)[C@H]3C[C@H](O)[C@]12C`, the Activity entry in data set [3] is on record as “Non-toxic”.

Turning to `CN1CCC[C@H]1c1cccnc1.C[C@H](CCC(=O)O)[C@H]1CC[C@H]2[C@@H]3CC[C@@H]4C[C@H](O)CC[C@]4(C)[C@H]3C[C@H](O)[C@]12C`, the hemolysis at 1 h, 0.63 mg/mL in data set [8] amounted to 5%. Besides, the Activity entry is “Non-toxic” in data set [3], “Toxic” in data set [9] and “Dose-dependent effect” in data set [2]. The hemolysis at 1 h, 1e-05 mg/mL in data set [7] came to 12.4%.

For the molecule `CN1C(=[Se])CC[C@H]1c1cccnc1.C[C@H](CCC(=O)O)[C@H]1CC[C@H]2[C@@H]3CC[C@@H]4C[C@H](O)CC[C@]4(C)[C@H]3CC[C@]12C`, in [10], the hemolysis at 1 h, 0.006 mg/mL came to 5%. In addition, the Activity result in data set [6] is given as “Toxic”. Further, in data set [2], the 50% inhibitory concentration (IC50) was determined as 180 µg/mL and the Activity result was “Dose-dependent effect”.

As to `CN1CCC[C@H]1c1cccnc1.C[C@H](CCC(=O)O)[C@H]1CC[C@H]2[C@@H]3CC[C@@H]4C[C@H](O)CC[C@]4(C)[C@H]3CC[C@]12C`, the values for the Activity result in [9] and in data set [2] were “Toxic” and “Dose-dependent effect”, respectively. Also, the hemolysis at 1 h, 0.007 mg/mL in [11] was 5%. For the same molecule, the IC50 in data set [2] is 200 µg/mL. For the same molecule, the hemolysis at 1 h, 1e-05 mg/mL in [7] amounted to 16.7%.

Regarding `CN1C(=[Se])CC[C@H]1c1cccnc1`, the Activity result in data set [3] and in [12] was “Non-toxic” throughout.

In the case of `CN1C(=S)CC[C@H]1c1cccnc1`, the Activity result in [3] and in data set [12] was “Non-toxic” each time.

Consider `C[C@H](CCC(=O)O)[C@H]1CC[C@H]2[C@@H]3[C@H](O)C[C@@H]4C[C@H](O)CC[C@]4(C)[C@H]3C[C@H](O)[C@]12C` [CHOLIC ACID], for which the Activity entry in [3] is “Non-toxic”. In data set [13], the hemolysis at 1 h, 0.75 mg/mL stood at 5%.

As to `C[C@H](CCC(=O)O)[C@H]1CC[C@H]2[C@@H]3CC[C@@H]4C[C@H](O)CC[C@]4(C)[C@H]3CC[C@]12C` [LITHOCHOLIC ACID], in [14], the hemolysis at 1 h, 0.0001 mg/mL was 5%. In [9], the Activity entry is given as “Toxic”. Moreover, the IC50 in data set [2] is 9 µg/mL (≈ 23.9 µM).

For the molecule `CN1CCC[C@H]1c1cccnc1` [NICOTINE], the Activity entry in data set [3] and in data set [12] was “Non-toxic” each time.

With `C[C@H](CCC(=O)O)[C@H]1CC[C@H]2[C@@H]3CC[C@@H]4C[C@H](O)CC[C@]4(C)[C@H]3C[C@H](O)[C@]12C` [SODIUM DEOXYCHOLATE], the Activity result in [9] is reported as “Toxic”. Further, in data set [15], the hemolysis at 1 h, 0.17 mg/mL is 5%.
